Laboratory results published in the NIST ThermoML archive (doi:10.1016/j.jct.2018.02.022).
Numbers after ± are expanded uncertainties.

Assay: xn = mol fraction of the nth substance listed
Conditions: 92.3 kPa, Liquid; for viscosity: Concentric cylinders viscometry; for speed of sound: Frequency=3 MHz, Single path-length method; for mass density: Vibrating tube method

OCCOCCOCCO [triethylene glycol] + O
Conditions | mass density, 293.15 K [kg/m3] | mass density, 298.15 K [kg/m3] | speed of sound, 293.15 K [m/s] | speed of sound, 298.15 K [m/s] | viscosity, 293.15 K [mPa·s] | viscosity, 298.15 K [mPa·s]
x1 = 0.0101 | 1009.83 ± 3.2 | 1008.38 ± 3.2 | 1526.7 ± 1.8 | 1537.4 ± 1.8 | – | –
x1 = 0.0196 | 1019.71 ± 3.2 | 1017.88 ± 3.2 | 1563.3 ± 1.8 | 1571 ± 1.8 | – | –
x1 = 0.025 | 1024.91 ± 3.2 | 1023.1 ± 3.2 | – | – | 1.881 ± 0.26 | 1.524 ± 0.21
x1 = 0.029 | 1028.88 ± 3.2 | 1027.04 ± 3.2 | 1595.7 ± 1.8 | 1600.5 ± 1.8 | – | –
x1 = 0.0381 | 1036.74 ± 3.2 | 1034.7 ± 3.2 | 1622.5 ± 1.8 | 1625 ± 1.8 | – | –
x1 = 0.0489 | 1044.89 ± 3.3 | 1042.58 ± 3.3 | – | – | 2.921 ± 0.41 | 2.329 ± 0.33
x1 = 0.0496 | 1045.76 ± 3.3 | 1043.48 ± 3.3 | 1651.6 ± 1.8 | 1651.4 ± 1.8 | – | –
x1 = 0.0601 | 1053.18 ± 3.3 | 1050.7 ± 3.3 | 1673.8 ± 1.8 | 1671.4 ± 1.8 | – | –
x1 = 0.0689 | 1058.69 ± 3.3 | 1056.05 ± 3.3 | 1689 ± 1.8 | 1685.1 ± 1.8 | – | –
x1 = 0.0754 | 1062.23 ± 3.3 | 1059.51 ± 3.3 | – | – | 4.368 ± 0.61 | 3.456 ± 0.48
x1 = 0.0801 | 1065 ± 3.3 | 1062.2 ± 3.3 | 1704.9 ± 1.8 | 1699.4 ± 1.8 | – | –
x1 = 0.0905 | 1070.23 ± 3.3 | 1067.29 ± 3.3 | 1716.5 ± 1.8 | 1709.8 ± 1.8 | – | –
x1 = 0.0993 | 1074.35 ± 3.3 | 1071.33 ± 3.3 | – | – | 5.989 ± 0.84 | 4.677 ± 0.66
x1 = 0.0996 | 1074.38 ± 3.3 | 1071.33 ± 3.3 | 1724.7 ± 1.8 | 1716.9 ± 1.8 | – | –
x1 = 0.1479 | 1090.64 ± 3.3 | 1087.21 ± 3.3 | 1744.5 ± 1.8 | 1733.4 ± 1.8 | – | –
x1 = 0.15 | 1091.94 ± 3.3 | 1088.51 ± 3.3 | – | – | 10.19 ± 1.4 | 7.813 ± 1.1
x1 = 0.1993 | 1101.82 ± 3.3 | 1098.18 ± 3.3 | – | – | 14.46 ± 2 | 11.2 ± 1.6
x1 = 0.2004 | 1101.27 ± 3.3 | 1097.63 ± 3.3 | 1742 ± 1.8 | 1729.3 ± 1.8 | – | –
x1 = 0.2462 | 1107.12 ± 3.3 | 1103.39 ± 3.3 | 1732.1 ± 1.8 | 1718.8 ± 1.8 | – | –
x1 = 0.2526 | 1107.94 ± 3.3 | 1104.19 ± 3.3 | – | – | 19.41 ± 2.7 | 14.94 ± 2.1
x1 = 0.2998 | 1111.26 ± 3.3 | 1107.47 ± 3.3 | – | – | 23.57 ± 3.3 | 18.09 ± 2.5
x1 = 0.3004 | 1111.57 ± 3.3 | 1107.79 ± 3.3 | 1718.2 ± 1.8 | 1704.4 ± 1.8 | – | –
x1 = 0.3474 | 1114.22 ± 3.3 | 1110.41 ± 3.3 | 1706.1 ± 1.8 | 1692.1 ± 1.8 | – | –
x1 = 0.3539 | 1113.94 ± 3.3 | 1110.13 ± 3.3 | – | – | 27.83 ± 3.9 | 21.31 ± 3
x1 = 0.3948 | 1116.15 ± 3.3 | 1112.33 ± 3.3 | 1694.8 ± 1.9 | 1680.7 ± 1.9 | – | –
x1 = 0.4009 | 1115.83 ± 3.3 | 1112.01 ± 3.3 | – | – | 31.2 ± 4.4 | 23.85 ± 3.3
x1 = 0.4467 | 1117.71 ± 3.3 | 1113.88 ± 3.3 | 1683.9 ± 1.9 | 1669.6 ± 1.9 | – | –
x1 = 0.4492 | 1117.53 ± 3.3 | 1113.7 ± 3.3 | – | – | 34.1 ± 4.8 | 26.05 ± 3.6
x1 = 0.4992 | 1119.04 ± 3.3 | 1115.2 ± 3.3 | – | – | 36.67 ± 5.1 | 28.01 ± 3.9
x1 = 0.5021 | 1118.97 ± 3.3 | 1115.13 ± 3.3 | 1673.6 ± 1.9 | 1659.2 ± 1.9 | – | –
x1 = 0.548 | 1119.77 ± 3.3 | 1115.93 ± 3.3 | 1666.3 ± 1.9 | 1651.9 ± 1.9 | – | –
x1 = 0.5484 | 1120.2 ± 3.3 | 1116.36 ± 3.3 | – | – | 38.84 ± 5.4 | 29.68 ± 4.2
x1 = 0.5923 | 1120.43 ± 3.3 | 1116.59 ± 3.3 | 1660 ± 1.9 | 1645.4 ± 1.9 | – | –
x1 = 0.5996 | 1121.03 ± 3.3 | 1117.17 ± 3.3 | – | – | 40.64 ± 5.7 | 31.06 ± 4.4
x1 = 0.6442 | 1121.04 ± 3.3 | 1117.19 ± 3.3 | 1653.7 ± 1.9 | 1639.1 ± 1.9 | – | –
x1 = 0.6506 | 1121.46 ± 3.3 | 1117.6 ± 3.3 | – | – | 42.15 ± 5.9 | 32.21 ± 4.5
x1 = 0.701 | 1121.62 ± 3.3 | 1117.76 ± 3.3 | – | – | 43.67 ± 6.1 | 33.32 ± 4.7
x1 = 0.7095 | 1121.66 ± 3.3 | 1117.81 ± 3.3 | 1647 ± 1.9 | 1632.3 ± 1.9 | – | –
x1 = 0.7531 | 1122.03 ± 3.3 | 1118.17 ± 3.3 | 1642.9 ± 1.9 | 1628.1 ± 1.9 | – | –
x1 = 0.7567 | 1121.7 ± 3.3 | 1117.85 ± 3.3 | – | – | 44.87 ± 6.3 | 34.32 ± 4.8
x1 = 0.7859 | 1122.28 ± 3.3 | 1118.42 ± 3.3 | 1640.2 ± 2 | 1625.3 ± 2 | – | –
x1 = 0.8035 | 1121.91 ± 3.3 | 1118.05 ± 3.3 | – | – | 45.73 ± 6.4 | 34.99 ± 4.9
x1 = 0.8387 | 1122.62 ± 3.3 | 1118.75 ± 3.3 | 1636.5 ± 2 | 1621.5 ± 2 | – | –
x1 = 0.8406 | 1122.25 ± 3.3 | 1118.38 ± 3.3 | – | – | 46.36 ± 6.5 | 35.51 ± 5
x1 = 0.8981 | 1123.02 ± 3.3 | 1119.14 ± 3.3 | – | – | 46.96 ± 6.6 | 35.95 ± 5
x1 = 0.9031 | 1123.01 ± 3.3 | 1119.13 ± 3.3 | 1632.1 ± 2 | 1617 ± 2 | – | –
x1 = 0.9181 | 1123.08 ± 3.3 | 1119.2 ± 3.3 | 1631.3 ± 2 | 1616.2 ± 2 | – | –
x1 = 0.9344 | 1123.16 ± 3.3 | 1119.28 ± 3.3 | 1630.5 ± 2 | 1615.4 ± 2 | – | –
x1 = 0.9489 | 1123.57 ± 3.3 | 1119.68 ± 3.3 | – | – | 47.64 ± 6.7 | 36.46 ± 5.1
x1 = 0.9569 | 1123.28 ± 3.3 | 1119.39 ± 3.3 | 1629.2 ± 2 | 1614.1 ± 2 | – | –
x1 = 0.9782 | 1123.37 ± 3.3 | 1119.48 ± 3.3 | 1628.1 ± 2 | 1612.9 ± 2 | – | –
x1 = 1 | 1123.48 ± 3 | 1119.59 ± 3 | 1626.8 ± 2 | 1611.6 ± 2 | 48.06 ± 6.7 | 36.88 ± 5.2
